Measurements: US20260048051A1, “TREATMENT OF INFLAMMATORY BOWEL DISEASE” (Atomwise Inc., priority 2024, published 2026)
Like-named read-outs stand apart in the source and are kept apart here.

Assay: Plasma and tissue distribution in SD rats
Type: in vivo
Conditions: for Kp / AUC(0-t): rat, 10 mg/kg; for AUC(0-t): plasma
Text: The following Example describes the methods and data used to evaluate the tissue distribution of TYK2 inhibitors following the administration of either compound 1 or compound 2.
Thirty (30, 15/sex) SD rats supplied by Beijing Vital River Laboratory Animal Technology Co., Ltd. were used in this study. The animals were confirmed to be healthy before being assigned to the study. The room (s) was controlled and monitored for relative humidity (targeted mean range 40% to 70%) and temperature (targeted mean range 20° C. to 26° C.) with 15 or above air changes/hour. The room was on a 12-hour light/dark cycle except when interruptions were necessitated by study activities. Fresh drinking water (reverses osmosis) was available to all animals, ad libitum. Certified animal diet from certified vendor was available to all animals, ad libitum.
Animals were weighed prior to dose administration to calculate the actual dose volume. The body weights were in the range from 245.39 to 276.33 g for males and 182.29 to 215.69 g for females on the first dosing day. The animals in Groups 1 and 2 received a single oral gavage administration of test compound 1. Cage-side observations for the general health condition and appearance of the animal were performed before and after dosing and at each time point of sample collection. Unusual observations were recorded throughout the duration of the study.
The vehicle was 0.5% methyl cellulose (4000 cps) in water. The formulation was prepared according to the following steps. Group 1: 25.95 mg of compound 1 was weighed into a glass vial. 5000 μL of vehicle was added into the vial and stirred for 30 min at 1700 rpm to get a homogenous opaque suspension. 5000 μL of vehicle was added into the vial and stirred for 10 min at 1700 rpm to get a homogenous opaque suspension. 5000 μL+5000 μL+5000 μL+924 μL of vehicle was added into the vial and stirred for 10 min at 1700 rpm to get a homogenous opaque suspension. Group 2: 81.66 mg of compound 1 was weighed into a glass vial. 5000 μL of vehicle was added into the vial and stirred for 30 min at 1700 rpm to get a homogenous opaque suspension. 5000 μL of vehicle was added into the vial and stirred for 10 min at 1700 rpm to get a homogenous opaque suspension. 10 mL+10 mL+10 mL+20 mL+10 mL+10 mL+1580 μL of vehicle was added into the vial and stirred for 10 min at 1700 rpm to get a homogenous opaque suspension.
Blood (about 0.2 mL) was collected at each time point via jugular vein puncture from each study animal. The actual time for each sample collection was recorded. The acceptable deviations on sampling time were ±1 min for the time points pre-dose through 1 hour post-dose, and +5% of the nominal time for time points after 1 hour post-dose.
All blood samples were transferred into commercial tubes containing K2-EDTA. After blood was collected, the samples were placed on wet ice and processed for plasma within 60 minutes of collection by centrifugation at approximately 4° C., 3200×g for 10 minutes, and then quickly frozen over dry ice and kept at −60° C. or lower until LC-MS/MS analysis.
Following terminal blood sample collection, animals were conducted CO2 euthanasia, the chest and abdominal cavities were opened carefully lengthwise using scissors to expose the internal organs in preparation of tissue perfusion. A needle was used to puncture a small hole into the left ventricle of the heart, and then clamped with a hemostat. […] Fluid (cold 1×PBS) was infused until the liver pales (typically 2-3 minutes). Following perfusion, 14 kinds of tissues (spleen, bone marrow, adipose, brain, heart, kidney, liver, lung, skin, small intestine, large intestine, eye, gonads, and bladder) were collected from each animal, respectively.
Each tissue was weighed and homogenized on wet ice using homogenizing buffer (MeOH/15 mM PBS 1:2) at the ratio of 1:9 (1 g tissue with 9 mL buffer). The tissue homogenate was kept at −60° C. or lower until LC-MS/MS analysis. […]

[1] = female SD rat, PO 10 mg/kg, Spleen
[2] = male SD rat, PO 10 mg/kg, Bladder
[3] = male SD rat, PO 10 mg/kg, Bone Marrow
[4] = male SD rat, PO 10 mg/kg, Epididymis & Testis
[5] = male SD rat, PO 10 mg/kg, Eyeball (left and right)
[6] = male SD rat, PO 10 mg/kg, Heart
[7] = male SD rat, PO 10 mg/kg, Kidney (left and right)
[8] = male SD rat, PO 10 mg/kg, Large intestine
[9] = male SD rat, PO 10 mg/kg, Liver
[10] = male SD rat, PO 10 mg/kg, Small intestine
[11] = male SD rat, PO 10 mg/kg, Spleen
[12] = ovary and uterus, female SD rat, PO 10 mg/kg, Ovary & Uterus

C[C@@H](c1ccc(Nc2cc(Nc3ncccc3S(C)(=O)=O)ncn2)nc1)N1CC2(COC2)C1 [Compound 1, (S)—N^4-(5-(1-(2-oxa-6-azaspiro[3.3]heptan-6-yl)ethyl)pyridin-2-yl)-N^6-(3-(methylsulfonyl)pyridin-2-yl)pyrimidine-4,6-diamine]
AUC0-24 [1]: 22131 ng·h/g | AUC0-inf [1]: 22145 ng·h/g | AUC0-last [1]: 19543 ng·h/g | Cmax [1]: 4430 ng/g | Tmax [1]: 30 min | half-life [1]: 157 min | Kp (female, SD, bladder, po, female SD rat, PO 10 mg/kg, Bladder, Tissue AUC0-last/Plasma AUC0-last, read-out: AUC Ratio): 5.12 | Kp (female, SD, bone marrow, po, female SD rat, PO 10 mg/kg, Bone Marrow, Tissue AUC0-last/Plasma AUC0-last, read-out: AUC Ratio): 4.64 | Kp (female, SD, eyeball (left and right), po, female SD rat, PO 10 mg/kg, Eyeball (left and right), Tissue AUC0-last/Plasma AUC0-last, read-out: AUC Ratio): 0.953 | Kp (female, SD, fat, po, female SD rat, PO 10 mg/kg, Fat, Tissue AUC0-last/Plasma AUC0-last, read-out: AUC Ratio): 0.506 | Kp (female, SD, heart, po, female SD rat, PO 10 mg/kg, Heart, Tissue AUC0-last/Plasma AUC0-last, read-out: AUC Ratio): 1.39 | Kp (female, SD, kidney (left and right), po, female SD rat, PO 10 mg/kg, Kidney (left and right), Tissue AUC0-last/Plasma AUC0-last, read-out: AUC Ratio): 30.6 | Kp (female, SD, large intestine, po, female SD rat, PO 10 mg/kg, Large intestine, Tissue AUC0-last/Plasma AUC0-last, read-out: AUC Ratio): 11.6 | Kp (female, SD, liver, po, female SD rat, PO 10 mg/kg, Liver, Tissue AUC0-last/Plasma AUC0-last, read-out: AUC Ratio): 8.67 | Kp (female, SD, lung, po, female SD rat, PO 10 mg/kg, Lung, Tissue AUC0-last/Plasma AUC0-last, read-out: AUC Ratio): 2.57 | Kp (female, SD, ovary and uterus, po, female SD rat, PO 10 mg/kg, Ovary & Uterus, Tissue AUC0-last/Plasma AUC0-last, read-out: AUC Ratio): 1.29 | Kp (female, SD, skin, po, female SD rat, PO 10 mg/kg, Skin, Tissue AUC0-last/Plasma AUC0-last, read-out: AUC Ratio): 1.11 | Kp (female, SD, small intestine, po, female SD rat, PO 10 mg/kg, Small intestine, Tissue AUC0-last/Plasma AUC0-last, read-out: AUC Ratio): 17.5 | Kp (female, SD, spleen, po, female SD rat, PO 10 mg/kg, Spleen, Tissue AUC0-last/Plasma AUC0-last, read-out: AUC Ratio): 5.73 | Kp (female, Sprague-Dawley, ovaries, oral, SD rat, Ovaries, read-out: Tissue/Plasma Ratio (AUCinf)): 1.4 | AUC(0-t) (female, Sprague-Dawley, po, female SD rat, PO 10 mg/kg, read-out: AUC0-24): 3610 ng·h/mL | AUC(0-t) (female, Sprague-Dawley, po, female SD rat, PO 10 mg/kg, read-out: AUC0-last): 3410 ng·h/mL | AUC0-24 [2]: 14526 ng·h/g | AUC0-inf [2]: 14666 ng·h/g | AUC0-last [2]: 14526 ng·h/g | Cmax [2]: 2980 ng/g | Tmax [2]: 120 min | half-life [2]: 203 min | AUC0-24 [3]: 10736 ng·h/g | AUC0-inf [3]: 10835 ng·h/g | AUC0-last [3]: 10736 ng·h/g | Cmax [3]: 2900 ng/g | Tmax [3]: 30 min | half-life [3]: 211 min | AUC0-24 [4]: 5163 ng·h/g | AUC0-last [4]: 5163 ng·h/g | AUC0-24 [5]: 1795 ng·h/g | AUC0-inf [5]: 1830 ng·h/g | AUC0-last [5]: 1332 ng·h/g | AUC0-24 (male SD rat, PO 10 mg/kg, Fat): 1703 ng·h/g | AUC0-inf (male SD rat, PO 10 mg/kg, Fat): 1716 ng·h/g | AUC0-last (male SD rat, PO 10 mg/kg, Fat): 1388 ng·h/g | AUC0-24 [6]: 3366 ng·h/g | AUC0-inf [6]: 3374 ng·h/g | AUC0-last [6]: 3004 ng·h/g | AUC0-24 [7]: 23128 ng·h/g | AUC0-inf [7]: 23415 ng·h/g | AUC0-last [7]: 23128 ng·h/g | AUC0-24 [8]: 45091 ng·h/g | AUC0-last [8]: 45091 ng·h/g | AUC0-24 [9]: 20288 ng·h/g | AUC0-inf [9]: 20534 ng·h/g | AUC0-last [9]: 20288 ng·h/g | Cmax [9]: 5400 ng/g | Tmax [9]: 30 min | half-life [9]: 232 min | AUC0-24 (male SD rat, PO 10 mg/kg, Lung): 5806 ng·h/g | AUC0-inf (male SD rat, PO 10 mg/kg, Lung): 5835 ng·h/g | AUC0-last (male SD rat, PO 10 mg/kg, Lung): 4926 ng·h/g | Cmax (male SD rat, PO 10 mg/kg, Lung): 1960 ng/g | Tmax (male SD rat, PO 10 mg/kg, Lung): 30 min | half-life (male SD rat, PO 10 mg/kg, Lung): 162 min | AUC0-24 (male SD rat, PO 10 mg/kg, Skin): 7864 ng·h/g | AUC0-inf (male SD rat, PO 10 mg/kg, Skin): 9352 ng·h/g | AUC0-last (male SD rat, PO 10 mg/kg, Skin): 7864 ng·h/g | Cmax (male SD rat, PO 10 mg/kg, Skin): 868 ng/g | Tmax (male SD rat, PO 10 mg/kg, Skin): 30 min | half-life (male SD rat, PO 10 mg/kg, Skin): 516 min | AUC0-24 [10]: 73082 ng·h/g | AUC0-inf [10]: 73697 ng·h/g | AUC0-last [10]: 73822 ng·h/g | Cmax [10]: 16500 ng/g | Tmax [10]: 30 min | half-life [10]: 205 min | AUC0-24 [11]: 13189 ng·h/g | AUC0-inf [11]: 13631 ng·h/g | AUC0-last [11]: 13189 ng·h/g | Cmax [11]: 4230 ng/g | Tmax [11]: 30 min | half-life [11]: 295 min | Kp (male, SD, bladder / plasma, po, male SD rat, PO 10 mg/kg, Bladder, Tissue AUC0-last/Plasma AUC0-last, read-out: AUC Ratio): 3.37 | Kp (male, SD, bone marrow / plasma, po, male SD rat, PO 10 mg/kg, Bone Marrow, Tissue AUC0-last/Plasma AUC0-last, read-out: AUC Ratio): 3.97 | Kp (male, SD, large intestine / plasma, po, male SD rat, PO 10 mg/kg, Large intestine, Tissue AUC0-last/Plasma AUC0-last, read-out: AUC Ratio): 16.7 | Kp (male, SD, liver / plasma, po, male SD rat, PO 10 mg/kg, Liver, Tissue AUC0-last/Plasma AUC0-last, read-out: AUC Ratio): 7.5 | Kp (male, SD, lung / plasma, po, male SD rat, PO 10 mg/kg, Lung, Tissue AUC0-last/Plasma AUC0-last, read-out: AUC Ratio): 1.82 | Kp (male, SD, skin / plasma, po, male SD rat, PO 10 mg/kg, Skin, Tissue AUC0-last/Plasma AUC0-last, read-out: AUC Ratio): 2.91 | Kp (male, SD, small intestine / plasma, po, male SD rat, PO 10 mg/kg, Small intestine, Tissue AUC0-last/Plasma AUC0-last, read-out: AUC Ratio): 27 | Kp (male, SD, spleen / plasma, po, male SD rat, PO 10 mg/kg, Spleen, Tissue AUC0-last/Plasma AUC0-last, read-out: AUC Ratio): 4.88 | Kp (male, Sprague-Dawley, epididymis and testis, po, male SD rat, PO 10 mg/kg, Epididymis & Testis, Tissue AUC0-last/Plasma AUC0-last, read-out: AUC Ratio): 1.91 | Kp (male, Sprague-Dawley, eyeball (left and right), po, male SD rat, PO 10 mg/kg, Eyeball (left and right), Tissue AUC0-last/Plasma AUC0-last, read-out: AUC Ratio): 0.492 | Kp (male, Sprague-Dawley, fat, po, male SD rat, PO 10 mg/kg, Fat, Tissue AUC0-last/Plasma AUC0-last, read-out: AUC Ratio): 0.513 | Kp (male, Sprague-Dawley, heart, po, male SD rat, PO 10 mg/kg, Heart, Tissue AUC0-last/Plasma AUC0-last, read-out: AUC Ratio): 1.11 | Kp (male, Sprague-Dawley, kidney (left and right), po, male SD rat, PO 10 mg/kg, Kidney (left and right), Tissue AUC0-last/Plasma AUC0-last, read-out: AUC Ratio): 8.35 | AUC(0-t) (male, Sprague-Dawley, po, male SD rat, PO 10 mg/kg, read-out: AUC0-24): 2910 ng·h/mL | AUC(0-t) (male, Sprague-Dawley, po, male SD rat, PO 10 mg/kg, read-out: AUC0-last): 2700 ng·h/mL | Kp (male, Sprague-Dawley, testis, oral, SD rat, Testis, read-out: Tissue/Plasma Ratio (AUCinf)): 1.6 | Cmax [12]: 976 ng/g | Tmax [12]: 30 min | half-life [12]: 161 min
